# Measurements reported in PubChem BioAssay AID1845205 (Molecular Pharmacology Branch, DTP, NCI, 2023).
# Test system: MPNST multicellular tumor spheroids, viability % test/control
# Experiment: Anticancer human tumor MPNST cell line growth inhibition;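 also: spheroids exposed to agents for seven days after three days of growth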;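 as to viability, T/C: luminescence signal used as surrogate for viable cell amount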
# Conditions: for IC50: curve of first compound; for viability, T/C: stronger effect = lower value
# How it was run: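 Complex spheroids of malignant cells with endothelial cells and mesenchymal stem cells; agents alone or combined, from near clinical Cmax (or 10 microM if unknown) down in half-log steps, 0.25% DMSO final.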
smiles,measurement,setting,value
CC(C)n1c(=O)n(C)c2cnc3cc(F)c(-c4ccc(OCCCN5CCCCC5)nc4)cc3c21 + Cn1nnc2c(C(N)=O)ncn2c1=O,IC50,second compound 1 µM,> 10 µM
same,IC50,second compound 3.16 µM,> 10 µM
same,IC50,second compound 10 µM,> 10 µM
same,IC50,second compound 31.6 µM,> 10 µM
same,IC50,second compound 100 µM,> 10 µM
same,"viability, T/C","second compound 1 µM, first compound 0.0316 µM",87.4%
same,"viability, T/C","second compound 1 µM, first compound 0.1 µM",83.7%
same,"viability, T/C","second compound 1 µM, first compound 0.316 µM",82.6%
same,"viability, T/C","second compound 1 µM, first compound 1 µM",77.9%
same,"viability, T/C","second compound 1 µM, first compound 3.16 µM",79.4%
same,"viability, T/C","second compound 1 µM, first compound 10 µM",61.9%
same,"viability, T/C","second compound 3.16 µM, first compound 0.0316 µM",84.6%
same,"viability, T/C","second compound 3.16 µM, first compound 0.1 µM",82.9%
same,"viability, T/C","second compound 3.16 µM, first compound 0.316 µM",92.5%
same,"viability, T/C","second compound 3.16 µM, first compound 1 µM",99%
same,"viability, T/C","second compound 3.16 µM, first compound 3.16 µM",84.9%
same,"viability, T/C","second compound 3.16 µM, first compound 10 µM",65.2%
same,"viability, T/C","second compound 10 µM, first compound 0.0316 µM",76.6%
same,"viability, T/C","second compound 10 µM, first compound 0.1 µM",92.4%
same,"viability, T/C","second compound 10 µM, first compound 0.316 µM",82.4%
same,"viability, T/C","second compound 10 µM, first compound 1 µM",74.8%
same,"viability, T/C","second compound 10 µM, first compound 3.16 µM",77.7%
same,"viability, T/C","second compound 10 µM, first compound 10 µM",72.1%
same,"viability, T/C","second compound 31.6 µM, first compound 0.0316 µM",88.2%
same,"viability, T/C","second compound 31.6 µM, first compound 0.1 µM",89%
same,"viability, T/C","second compound 31.6 µM, first compound 0.316 µM",68.6%
same,"viability, T/C","second compound 31.6 µM, first compound 1 µM",81.8%
same,"viability, T/C","second compound 31.6 µM, first compound 3.16 µM",83.7%
same,"viability, T/C","second compound 31.6 µM, first compound 10 µM",68.8%
same,"viability, T/C","second compound 100 µM, first compound 0.0316 µM",76.8%
same,"viability, T/C","second compound 100 µM, first compound 0.1 µM",71.8%
same,"viability, T/C","second compound 100 µM, first compound 0.316 µM",74.2%
same,"viability, T/C","second compound 100 µM, first compound 1 µM",71.2%
same,"viability, T/C","second compound 100 µM, first compound 3.16 µM",91%
same,"viability, T/C","second compound 100 µM, first compound 10 µM",67.2%
